Literature values, collected in US12478584B1, “Atomoxetine hydrochloride oral suspension and use thereof” (OWP Pharmaceuticals, Inc., priority 2025, dated 2025).

Conditions: standard temperature and pressure

water solubility: 27.8 mg/mL
SMILES: CNCC[C@@H](Oc1ccccc1C)c1ccccc1.Cl [Atomoxetine, (3R)—N-methyl-3-(2-methylphenoxy)-3-phenylpropan-1-amine]
